Results reported in US6267972A, “Cosmetic/pharmaceutical compositions comprising β-adrenergic agonists/substance P antagonists” (Societe L'Oreal S.A., priority 1995, dated 2001).
Where a name gives a salt, the structure may show the parent alone.

Experiments:
[1] = tested on: substance P; experiment: In vivo functional test, neurogenic inflammation model: antidromic stimulation of the saphenous nerve, Evans blue tissular extravasation
Excerpt: The test entailed creating a neurogenic inflammation by the antidromic stimulation of the saphenous nerve in the anaesthetized animal. This nerve innervates the cutaneous regions of the hind paws. The stimulation causes the release from the nerve endings of substance P, which is partially responsible for the neurogenic inflammation. The neurogenic inflammation was quantified by measuring the tissular permeability with Evans blue, a marker for the tissular extravasation of plasma albumin which occurs during inflammation. This reference model was used in the in vivo search for substance P antagonists. […] Dose Effect of Salbutamol in the Antidromic Stimulation Model Presented in Example 1

[2] = tested on: sensitive skins; experiment: Test with capsaicin: topical application of capsaicin cream, appearance of subjective signs; assay type: in vivo, human; conditions: 0.05 ml cream with 0.075% capsaicin on approx. 4 cm^2 of skin; subjects with sensitive skins
Procedure: In order to determine if a skin is sensitive or not, the assignee hereof has also developed a test.
The test with capsaicin entails topically applying,. to approximately 4 cm^2 of skin, 0.05 ml of a cream comprising 0.075% of capsaicin and in noting the appearance of subjective signs caused by this application, such as smarting, burning sensations and itching.

[3] = 1 μmol, Table I, mean of 8 experiments, p < 0.001

Compound: CC(CCc1ccccc1)NC(C)C(O)c1ccc(O)cc1 (centres unmarked) [Nylidrin.HCl]
- % of inhibition [1, 3]: 95%

Compound: CC(C)(C)NCC(O)c1ccc(O)c(CO)c1 (centres unmarked) [Salbutamol]
- % of inhibition [1, 3]: 100%
- activity with respect to the release of substance P, dose dependence ([1]; 0.1 to 100 nmol): dose dependent
- % of inhibition ([1]; Table II, dose 0.1 nmol, n.s. (not significant)): 17%
- % of inhibition ([1]; Table II, dose 1 nmol, p < 0.05): 65%
- % of inhibition ([1]; Table II, dose 10 nmol, p < 0.01): 80%
- % of inhibition ([1]; Table II, dose 100 nmol, p < 0.01): 100%
- activity relative to that of the reference molecule, Spantide II ([1]; antidromic stimulation model): approximately 30 times

Compound: COc1cc(CNC(=O)CCCC/C=C/C(C)C)ccc1O [capsaicin]
- erythema following subjective signs [2]: followed by the appearance of an erythema

Compound: CC(C)NCC(O)c1ccc(O)c(O)c1 (centres unmarked) [Isoproterenol]
- % of inhibition [1, 3]: 100%

Compound: CC(C)(C)NCC(O)COc1cccc2[nH]c(=O)[nH]c12 (centres unmarked) [CGP12177.HCl]
- % of inhibition [1, 3]: 77%
- Concentration (μg/ml of Evans blue) ([1]; 1 μmol, mean of 8 experiments, expressed as Evans blue, n.d.: not detected, control 5.98 ± 0.65): 1.37 ± 0.32 µg/mL

Compound: Spantide II
- % of inhibition ([1]; 30 nmol, Table I, mean of 8 experiments, p < 0.01): 59%
- % of inhibition ([1]; Table II, dose 30 nmol, p < 0.01): 67%
